Source: ChEMBL document CHEMBL1135462, “Novel selective phosphodiesterase (PDE4) inhibitors. 4. Resolution, absolute configuration, and PDE4 inhibitory activity of cis-tetra- and cis-hexahydrophthalazinones” (J Med Chem, 2002)

What was measured:
Phosphodiesterase 4 = Phosphodiesterase 4 (Homo sapiens, UniProt P27815+Q08499+Q07343+Q08493); test: Inhibitory activity against phosphodiesterase 4 carried out in the cytosol of human neutrophils; type: protein assay
Mus musculus = test: Percent inhibition of arachidonic acid induced mouse ear edema after 30 uM/kg peroral pretreatment; type: functional

Row | SMILES | Log IC50 (Phosphodiesterase 4) | Inhibition (Mus musculus)
1 | COc1ccc(C2=NNC(=O)[C@H]3CCCC[C@@H]23)c2c1OC1(CCCC1)C2 | -5.6 | –
2 | COc1ccc(C2=NNC(=O)C3CCCCC23)cc1OC1CCCC1 (centres undefined) | -6.8 | –
3 | COc1ccc(C2=NNC(=O)[C@H]3CCCC[C@@H]23)cc1OC | -5.1 | –
4 | COc1ccc(C2=NN(C3C4CC5CC(C4)CC3C5)C(=O)[C@H]3CC=CC[C@@H]23)cc1OC (single isomer, unassigned; (-)) | -6.9 | –
5 | COc1ccc(C2=NNC(=O)C3CC=CCC23)c2c1OC1(CCCC1)C2 (racemic) | -8 | –
6 | COc1ccc(C2=NNC(=O)[C@H]3CC=CC[C@@H]23)cc1OC | -6.1 | –
7 | COc1ccc(C2=NNC(=O)[C@@H]3CC=CC[C@H]23)cc1OC (relative stereo) | -7.3 | –
8 | COc1ccc(C2=NNC(=O)[C@H]3CCCC[C@@H]23)cc1OC1CCCC1 | -5.8 | –
9 | COc1ccc(C2=NNC(=O)[C@@H]3CC=CC[C@H]23)c2c1OC1(CCCC1)C2 | -8.5 | –
10 | COc1ccc(C2=NNC(=O)[C@@H]3CCCC[C@H]23)c2c1OC1(CCCC1)C2 | -7.8 | –
11 | COc1ccc(C2=NN(C3C4CC5CC(C4)CC3C5)C(=O)[C@@H]3CC=CC[C@H]23)cc1OC (single isomer, unassigned; (+)) | -9.3 | 49%
12 | COc1ccc(C2=NNC(=O)C3CCCCC23)cc1OC (centres undefined) | -6.4 | –
13 | COc1ccc([C@H](Cc2ccncc2)c2ccccc2)cc1OC1CCCC1 [CDP840] | -7.7 | 48%
14 | COc1ccc(C2=NN(C3C4CC5CC(C4)CC3C5)C(=O)C3CC=CCC23)cc1OC (racemic) | -9.2 | 51%
15 | CCOc1ccc(C2=NN(c3ccc(C(=O)O)cc3)C(=O)C3CC=CCC23)cc1OCC (racemic) | -7.7 | 48%
16 | CCOC(=O)c1ccc(N2N=C(c3ccc(OCC)c(OCC)c3)C3CC=CCC3C2=O)cc1 (racemic) | -8 | –
17 | COc1ccc(C2=NNC(=O)[C@@H]3CC=CC[C@H]23)cc1OC1CCCC1 (relative stereo) | -7.4 | –
18 | COc1ccc(C2=NNC(=O)C3CCCCC23)c2c1OC1(CCCC1)C2 (racemic) | -7.3 | –
19 | CCOC(=O)c1ccc(N2N=C(c3ccc(OCC)c(OCC)c3)[C@H]3CC=CC[C@H]3C2=O)cc1 | -8.2 | 27%
20 | COc1ccc(C2=NNC(=O)[C@@H]3CCCC[C@H]23)cc1OC1CCCC1 (relative stereo) | -7.1 | –
21 | COc1ccc(C2=NNC(=O)[C@H]3CC=CC[C@@H]23)cc1OC1CCCC1 | -6.7 | –
22 | COc1ccc(C2=NNC(=O)C3CC=CCC23)cc1OC (racemic) | -7 | –
23 | COc1ccc(C2=NNC(=O)C3CC=CCC23)cc1OC1CCCC1 (centres undefined) | -7.1 | –
24 | COc1ccc(C2=NNC(=O)[C@@H]3CCCC[C@H]23)cc1OC (relative stereo) | -6.9 | –
25 | COc1ccc(C2CNC(=O)C2)cc1OC1CCCC1 (single isomer, unassigned; (-)) [ROLIPRAM] | – | 55%
26 | COc1ccc(C2=NNC(=O)[C@H]3CC=CC[C@@H]23)c2c1OC1(CCCC1)C2 | -6.6 | –
27 | CCOc1ccc(C2=NN(c3ccc(C(=O)O)cc3)C(=O)[C@@H]3CC=CC[C@H]23)cc1OCC | -8.3 | 47%
28 | COc1ccc([C@]2(C#N)CC[C@@H](C(=O)O)CC2)cc1OC1CCCC1 [CILOMILAST] | – | 33%
